In one experiment the target is albumin (HSA) (Homo sapiens, UniProt P02768). In words: Binding ability evaluation: dissociation constant from fluorescence change with increasing albumin. The conditions noted are these: 100 nM boron-containing compound, 95 vol % PBS buffer and 5 vol % DMSO, stirred 2 hours, fluorescence at 530 nm. On the procedure: 100 nM boron-containing compound B1 and albumin (HSA) were mixed in 95 vol % PBS buffer and 5 vol % dimethyl sulfoxide (DMSO) and stirred for 2 hours. The change in fluorescence intensity (F.I.) was measured while increasing the concentration of the albumin, and the dissociation constant (Kd) calculated based thereon is shown in FIG. 2.
For example, 0:1 represents the case where 100 nM albumin (HSA) was used without using a boron-containing compound, 1:0 represents the case where 100 nM boron-containing compound B1 was used and no albumin (HSA) was used, 1:2 represents the case where 100 nM boron-containing compound B1 and 200 nM albumin (HSA) were used, and 1:16 represents the case where 100 nM boron-containing compound B1 and 1600 nM albumin (HSA) were used.
The dissociation constants (Kd) of boron-containing compounds B2 to B5 were calculated in the same method as used to produce boron-containing compound B1.

Experiment [1] in a line: Evaluation of ROS production according to lysine concentration. The conditions noted are these: 10 μM compound with about 1.0 mM monomeric lysine, PBS pH 7.4, light of about 530 nm. On the procedure:
• i) 1.0 mM lysine (hereinafter, Lys) was mixed in PBS buffer solution (pH 7.4) and irradiated with light of about 530 nm. The fluorescence generated over time was measured using a Scinco FS-2, and results thereof are shown in FIG. 7A. • ii) The result of mixing 10 μM boron-containing compound B3 instead of the 1.0 mM lysine (Lys) is shown in FIG. 7B, iii) the result of mixing 10 μM boron-containing compound B3 and 0.1 mM lysine (Lys) instead of the 1.0 mM lysine (Lys) is shown in FIG. 7C, and iv) the result of mixing 10 μM boron-containing compound B3 and 1.0 mM lysine (Lys) instead of the 1.0 mM lysine (Lys) is shown in FIG. 7D.

One may read the Kd as the constant that tells how readily two partners part at equilibrium. Higher therefore signals a looser complex.

albumin (HSA), sequence (P02768 25-609): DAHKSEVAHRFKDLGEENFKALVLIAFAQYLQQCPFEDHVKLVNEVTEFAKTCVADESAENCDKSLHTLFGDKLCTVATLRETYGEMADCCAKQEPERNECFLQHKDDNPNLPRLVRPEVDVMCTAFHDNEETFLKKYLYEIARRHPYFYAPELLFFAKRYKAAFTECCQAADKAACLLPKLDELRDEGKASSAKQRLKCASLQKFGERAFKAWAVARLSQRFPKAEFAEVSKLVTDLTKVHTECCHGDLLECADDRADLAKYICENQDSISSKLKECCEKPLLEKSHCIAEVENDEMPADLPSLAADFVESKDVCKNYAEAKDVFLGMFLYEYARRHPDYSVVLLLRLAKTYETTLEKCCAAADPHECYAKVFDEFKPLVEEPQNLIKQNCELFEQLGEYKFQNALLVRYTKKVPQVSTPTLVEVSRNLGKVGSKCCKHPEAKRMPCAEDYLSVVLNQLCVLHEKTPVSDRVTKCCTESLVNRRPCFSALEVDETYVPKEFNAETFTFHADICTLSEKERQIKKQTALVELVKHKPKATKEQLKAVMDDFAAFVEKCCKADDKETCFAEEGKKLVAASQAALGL

The molecule `O=Cc1cc2ccccc2cc1NCc1ccccc1B(O)O` [B3] displayed a Kd on albumin (HSA) of 2480 nM. Besides, the “reactive oxygen species generated when mixed with lysine” value in experiment [1] was “relatively large amount of reactive oxygen species is generated”. Turning to `O=Cc1cc(Br)ccc1NCc1ccccc1B(O)O` [B2], the affinity at albumin (HSA), expressed as Kd, was 383 nM. In other words, the sub-micromolar range. As for `O=Cc1ccccc1NCc1ccccc1B(O)O` [B1], the Kd at albumin (HSA) came out at 185 nM. Against the preceding molecule, the Kd is about 2.1-fold lower. At albumin (HSA), `O=C(c1ccccc1)c1ccccc1NCc1ccccc1B(O)O` [B4] displayed a Kd of 2220 nM. Compared with the last molecule, the Kd is about 12-fold higher. On the same count and under the same terms, in the case of `O=Cc1cc2c(cc1NCc1ccccc1B(O)O)OCO2` [B5] it was 571 nM.

(Values after patent US20260232821A1, “ALBUMIN CONJUGATE, METHOD FOR PRODUCING SAME, AND COMPOSITION FOR TARGETING, DIAGNOSING, OR TREATING CANCER COMPRISING SAME” (KYTECBIO CO., LTD., priority 2023, published 2026).)
